The values that follow are results of earlier work, collected in US9044531B2, “Vascular closure device” (Cordis Corporation, priority 2007, dated 2015).

The structures appear in SMILES notation.

The data set deals with S. aureus. The following applies: measured in a suitable growth medium; Bhargava et al., American Journal of Infection Control, June 1996.

For the molecule `Oc1cc(Cl)ccc1Oc1ccc(Cl)cc1Cl` [2,4,4′-trichloro-2′-hydroxydiphenyl ether], the “minimum inhibitory concentration (MIC) against S. aureus” value is 0.01 ppm.
